The results in this text go back to paper PMC7344389, “Discovery of Anti-Amoebic Inhibitors from Screening the MMV Pandemic Response Box on Balamuthia mandrillaris, Naegleria fowleri, and Acanthamoeba castellanii” (Pathogens, 2020).

The test system of this test is Balamuthia mandrillaris trophozoites. Kind of test: CellTiter-Glo 2.0 trophocidal assay, B. mandrillaris. The class given is cell-based. Conditions: for IC50: 72 h, CTG method, duplicate twofold serial dilutions from 10 µM, mean ± SD; for Selectivity Index (A549 IC50/B. mandrillaris IC50): SI = (IC50 A549)/(IC50 Amoeba). The procedure: Pathogenic Balamuthia mandrillaris (CDC:[…]; American Type Culture Collection (ATCC) 50209), a GAE isolate, isolated from a pregnant baboon at the San Diego Zoo in 1986 was donated by Luis Fernando […] University, Mexico [43]. Trophozoites were routinely grown axenically in Balamuthia mandrillaris Itson (BMI) media at 37 °C, 5% CO2 in vented 75 cm^2 tissue culture flasks (Olympus, El Cajon, CA, USA), until the cells were 80-90% confluent. For sub-culturing, 0.25% Trypsin-EDTA (Gibco, Gaithersburg, MD, USA) cell detachment reagent was used to detach the cells from the culture flasks. The cells were collected by centrifugation at 4000 rpm at 4 °C. Complete BMI media is produced by the addition of 10% fetal bovine serum (FBS) and 125 μg of penicillin/streptomycin antibiotics. The trophocidal activity of compounds was assessed using the CellTiter-Glo 2.0 luminescent viability assay (Promega, Madison, WI, USA), as previously described. Trophozoites were routinely cultured as described above and only logarithmic trophozoites were used. […] Inhibitors were assessed for percent inhibition using the criteria of ≤33% growth inhibition (no inhibition), 33-67% growth inhibition (moderate inhibition), and ≥67% growth inhibition (strong inhibition). […] We used this process to reduce the number of potential false positives. […] All assays were incubated at each of the parasites' representative growth temperatures, described above, for 72 h. At the 72 h time point, 25 μL of CellTiter-Glo 2.0 reagent was added to all wells of the 96-well plates using the Biomek NX^P automated workstation. The plates were protected from light and contents were mixed using an orbital shaker at 300 rpm at room temperature for 2 min to induce cell lysis. After shaking, the plates were equilibrated at room temperature for 10 min to stabilize the luminescent signal. The adenosine triphosphate (ATP) luminescent signal (relative light units; RLUs) was measured at 490 nm with a SpectraMax I3X plate reader (Molecular Devices, Sunnyvale, CA, USA). Drug inhibitory concentration (IC50) curves were generated using total ATP RLUs, where controls were calculated as the average of replicates using the Levenberg-Marquardt algorithm, using DMSO as the normalization control, as defined in Collaborative Drug Discovery Inc. (CDD) Vault (Burlingame, CA, USA). Values reported are from a minimum of two biological replicates with standard deviations.

For orientation: IC50 means the point on the concentration scale where inhibition reaches its midpoint. Lower therefore signals higher potency. For the setting “Balamuthia mandrillaris”, `C[C@@H](c1nc(-c2ccc(C#N)cc2)cs1)[C@](O)(Cn1cncn1)c1ccc(F)cc1F` [Ravuconazole] had a half-maximal inhibitory concentration (IC50) above 10 µM.

On to `Cc1[nH]c2ccccc2c1CCNCc1ccc(/C=C/C(=O)NO)cc1` [Panobinostat], for which the “Selectivity Index (A549 IC50/B. mandrillaris IC50)” value is recorded as below 0.79. Further, for the setting “Balamuthia mandrillaris”, the IC50 was found to be 0.39 ± 0.04 µM. Besides, the “potency against B. mandrillaris, in words” value (dose-response, CTG) is reported as “nanomolar potency”. The molecule `CN(Cc1ccc(C(C)(C)C)cc1)Cc1cccc2ccccc12` [Butenafine] had a concentration for half-maximal inhibition (IC50) (Balamuthia mandrillaris) above 10 µM. As to `CC(=O)Oc1ccccc1C(=O)Nc1ncc([N+](=O)[O-])s1` [Nitazoxanide], the concentration for half-maximal inhibition (IC50) came out at 8.6 ± 1.98 µM and the “Selectivity Index (A549 IC50/B. mandrillaris IC50)” value was at least 1.16. The molecule also showed an IC50 (Balamuthia mandrillaris) of at most 10 µM. `CN(C/C=C/C#CC(C)(C)C)Cc1cccc2ccccc12` [Terbinafine] yielded a half-maximal inhibitory concentration (IC50) (Balamuthia mandrillaris) above 10 µM.
